In paper PMC6760193, “Characterization of artificially re-pigmented ARPE-19 retinal pigment epithelial cell model” (Scientific Reports, 2019):

Tests used:
ARPE-19mel cells = assay: Melanosomal drug uptake assay in re-pigmented ARPE-19mel cells (medium concentration vs non-pigmented ARPE-19, LC-MS/MS); type: in vitro ADME, human; conditions: 4 µM drug, 20 hours; for Melanosomal drug uptake (%), average: serum-free medium; for Melanosomal drug uptake (fraction of administered compound in the melanosomes): ARPE-19mel cells, pigmentation stage not specified
Protocol: Uptake of six different drugs (Table 1) was studied in non-pigmented ARPE-19 cells and pigmented ARPE-19mel cells. The melanosome administration was conducted as described above using three melanosome doses (corresponding to 7 µg, 20 µg and 68 µg of melanin). These melanosome doses correspond to 10, 30 and 100% levels of pigmentation. The highest external melanosome dose (68 µg) results in similar cellular pigmentation with the native pRPE (i.e. normalized as 100%).
Drug uptake study was initiated 4–5 days after melanosome feeding. The experiments were conducted in 2–6 replicate wells, separately for each compound. The cells were exposed to 4 µM of each drug for 20 hours in serum-free culture medium. Then, samples from the medium samples were collected and diluted 2:5 into acetonitrile (ACN) with 0.2% formic acid. The samples were centrifuged at 15 000 g for 5 min, and the supernatant was collected and diluted 1:10 into mixture of ACN-water (60:40). Finally, internal standards were added at final concentration of 100 nM. Different internal standards were used for each compound (Table 1). The melanin amounts in the wells were measured after the uptake experiment (see above).
Drugs were quantitated with liquid chromatography mass spectrometry (LC-MS) analyses that were carried out with Acquity i-class UPLC (Waters, Massachusetts, USA) coupled with Xevo TQ-S triple quadrupole mass spectrometry (Waters). […] Chromatographic separation for all six compounds was carried out using Waters HSS-T3 column (2.1 × 100 mm, 1.8 µm) and gradient run. The mobile phases were prepared as binary phases. Phase A was purified water with 0.1% of formic acid and phase B contained 100% lc-ms grade acetonitrile (Chromasolv^TM). […] Total run time was 9 minutes including column flush and stabilization to the initial state. […] Flow through needle system was used.
Electrospray ionization on positive mode was used in the analyses. […] Nitrogen was used as a desolvation gas (Aga, Helsinki, Finland) and argon as a collision gas (Aga). Capillary and cone voltages, collision energy and dwell time were tuned individually for each compound (Table 2). […] Minimum of eight calibration curve levels were used for quantification while quality control (QC) samples used to monitor precision and bias of the assay. Data were processed with MassLynx V4.1 software (Waters).
The melanosomal drug uptake was calculated using the Eq. 1 below:1 Melanosomaldruguptake(%)=(1−CmediumARPE−19mel/CmediumARPE−19)×100%

[1] = parameters: method as in PMID 29859954, PMID 28479360; conditions: descriptors originally obtained with ACDLabs Software, cited from earlier work; for logD7.4 (predicted): pH 7.4
[2] = 10 % stage of pigmentation (7 µg melanin/well)
[3] = 30 % stage of pigmentation (20 µg melanin/well)
[4] = 100 % stage of pigmentation (68 µg melanin/well)

Melanosomal drug uptake (%), average (ARPE-19mel cells; [2])	Melanosomal drug uptake (%), average (ARPE-19mel cells; [3])	Melanosomal drug uptake (%), average (ARPE-19mel cells; [4])	Melanosomal drug uptake (fraction of administered compound in the melanosomes) (ARPE-19mel cells)	Compound	logD7.4 (predicted) [1]	pKa, most acidic [1]	pKa, most basic [1]
34.1%	76.1%	92.2%	> 90%	CC(C)NCC(O)COc1cccc2ccccc12 (centres unmarked) [propranolol]	–	–	–
17.6%	31.2%	48.2%	–	CC(C)(C)NC[C@H](O)COc1nsnc1N1CCOCC1 [timolol]	−0.6	–	9.4

The remaining lines, values behind:

Compound	Melanosomal drug uptake (%), average (ARPE-19mel cells; [2])	Melanosomal drug uptake (%), average (ARPE-19mel cells; [3])	Melanosomal drug uptake (%), average (ARPE-19mel cells; [4])	Melanosomal drug uptake (fraction of administered compound in the melanosomes) (ARPE-19mel cells)	logD7.4 (predicted) [1]	pKa, most acidic [1]	pKa, most basic [1]
CCN(CC)CCCC(C)Nc1ccnc2cc(Cl)ccc12 (centres unmarked) [chloroquine]	80.3%	93.3%	96.7%	> 90%	–	–	–
O=C(O)Cc1ccccc1Nc1c(Cl)cccc1Cl [diclofenac]	0.8%	1.2%	3.7%	< 5%	1.4	–	–
CN(Cc1cnc2nc(N)nc(N)c2n1)c1ccc(C(=O)N[C@@H](CCC(=O)O)C(=O)O)cc1 [methotrexate]	5.1%	3.9%	3.5%	< 5%	−5.1	3.5	–
CC[C@@H]1C(=O)OC[C@@H]1Cc1cncn1C [pilocarpine]	11.5%	23.5%	30.2%	–	−0.4	–	7.02
